Assay results as given in patent US12209102B2, “Heterocyclic compounds and uses thereof” (Kumquat Biosciences Inc., priority 2022, dated 2025).

Columns and labels:
Format in all cases: biochemical
[1] = biological target: T1, K-Ras WT (Homo sapiens, UniProt P01116); assay: HTRF resonance energy transfer assay, K-Ras WT / SOS1 interaction; conditions: HTRF assay of Example 5; read-out: IC50 against K-Ras WT
T1 construct: made in house; host or cells: E. coli BL21 (DE3)
Text: (§1) This assay can be also used to assess a selective inhibition or reduction of signaling output of a mutant Ras protein relative to a wildtype, or relative to a different mutant Ras protein. For example, the equilibrium interaction of wildtype Kras or K-Ras mutant (e.g., wildtype or a mutant thereof) with SOS1 (e.g., hSOS1) can be assessed as a proxy or an indication for a subject compound's ability to bind and inhibit Ras protein. HTRF assay detects from (i) a fluorescence resonance energy transfer (FRET) donor (e.g., antiGST-Europium) that is bound to GST-tagged K-Ras mutant to (ii) a FRET acceptor (e.g., anti-6His-XL665) bound to a His-tagged hSOS1.
(§2) The assay buffer can contain˜5 mM HEPES pH 7.4, ˜150 mM NaCl, ˜ 1 mM DTT, 0.05% BSA and 0.0025%(v/v) Igepal. A Ras working solution is prepared in an assay buffer containing typically a suitable amount of the protein construct (e.g., GST-tagged K-Ras mutant) and the FRET donor (e.g., antiGST-Eu(K) from Cisbio, France). A SOS1 working solution is prepared in an assay buffer containing suitable amount of the protein construct (e.g., His-hSOS1) and the FRET acceptor (e.g., anti-6His-XL665 from Cisbio, France). A suitable amount of the protein construct will depend on the range of activity or range of IC50 values being detected or under investigation. For detecting IC50 within a range of 500 nM, the protein constructs of the same range of molarity can be utilized.
(§3) A fixed volume of DMSO with or without test compound is transferred into a 384-well plate. Ras working solution is added to all wells of the test plate. SOS1 working solution is added to all wells except for those that are subsequently filled the inhibitor control solution. Upon incubation for about 10 minutes or longer, the fluorescence is measured with a M1000Pro plate reader (Tecan) using HTRF detection (excitation 337 nm, emission 1: 620 nm, emission 2: 665 nm). Compounds are tested in duplicates at different concentrations (for example, 10 μM, 2.5 μM, 0.63 μM, 0.16 μM, 0.04 μM, 0.01 μM test compound). The ratiometric data (i.e., emission 2 divided by emission 1) is used to calculate IC50 values against Ras using GraphPad Prism (GraphPad software). Following this general procedure, samples were tested with or without a subject compound disclosed herein including compounds exemplified in Table 1 to assess their abilities to inhibit a K-Ras mutant relative to another mutant or WT. Signaling output measured in terms of IC50 values can be obtained, a ratio of IC50 against one mutant relative to another mutant can be calculated. For instance, a selective reduction of K-Ras G12D signaling output can be evidenced by a ratio greater than one. In particular, a selective reduction of K-Ras G12D signaling relative to K-Ras WT signaling is evidenced as the ratio of IC50 (against K-Ras WT) to IC50 (against K-Ras G12D) is greater than 1.

[2] = biological target: T2, K-Ras G12V (Homo sapiens, UniProt P01116, G12V); assay: HTRF resonance energy transfer assay, K-Ras G12V / SOS1 interaction; conditions: HTRF assay of Example 5; read-out: IC50 against K-Ras G12V
T2 construct: made in house; host or cells: E. coli BL21 (DE3)
Text: as §1, §2, §3

[3] = biological target: T3, K-Ras G12D (Homo sapiens, UniProt P01116, G12D); assay: HTRF resonance energy transfer assay, K-Ras G12D / SOS1 interaction; conditions: HTRF assay of Example 5; read-out: IC50 against K-Ras G12D
T3 construct: made in house; host or cells: E. coli BL21 (DE3)
Text: as §1, §2, §3

[4] = biological target: T4, K-Ras G12S (Homo sapiens, UniProt P01116, G12S); assay: HTRF resonance energy transfer assay, K-Ras G12S / SOS1 interaction; conditions: HTRF assay of Example 5; read-out: IC50 against K-Ras G12S
T4 construct: made in house; host or cells: E. coli BL21 (DE3)
Text: as §1, §2, §3

T3 sequence (P01116 1-188 isoform P01116-2 G12D): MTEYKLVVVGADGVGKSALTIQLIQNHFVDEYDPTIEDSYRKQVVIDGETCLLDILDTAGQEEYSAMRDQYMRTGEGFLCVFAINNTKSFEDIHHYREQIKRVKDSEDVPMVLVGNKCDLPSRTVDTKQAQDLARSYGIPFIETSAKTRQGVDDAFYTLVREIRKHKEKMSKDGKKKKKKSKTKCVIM
T1 sequence (P01116 1-188 isoform P01116-2): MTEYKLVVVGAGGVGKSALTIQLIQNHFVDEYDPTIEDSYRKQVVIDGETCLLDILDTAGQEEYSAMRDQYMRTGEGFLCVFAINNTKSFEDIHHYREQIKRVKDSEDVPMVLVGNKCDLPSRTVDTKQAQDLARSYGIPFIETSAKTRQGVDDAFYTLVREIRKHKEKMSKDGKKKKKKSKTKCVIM
T4 sequence (P01116 1-188 isoform P01116-2 G12S): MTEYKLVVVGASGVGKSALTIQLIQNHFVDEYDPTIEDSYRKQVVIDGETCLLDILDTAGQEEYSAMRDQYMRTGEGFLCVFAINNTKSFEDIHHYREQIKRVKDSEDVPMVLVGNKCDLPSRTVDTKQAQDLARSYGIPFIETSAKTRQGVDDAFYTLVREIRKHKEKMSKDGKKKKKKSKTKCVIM
T2 sequence (P01116 1-188 isoform P01116-2 G12V): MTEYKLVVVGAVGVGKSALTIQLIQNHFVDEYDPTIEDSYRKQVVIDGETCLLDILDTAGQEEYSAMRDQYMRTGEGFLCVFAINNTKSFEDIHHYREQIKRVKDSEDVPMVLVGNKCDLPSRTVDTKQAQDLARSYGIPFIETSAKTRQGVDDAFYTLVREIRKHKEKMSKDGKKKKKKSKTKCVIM

| Structure (SMILES) | IC50 [1] | IC50 [2] | IC50 [3] | IC50 [4] |
| --- | --- | --- | --- | --- |
| N#Cc1c(N)sc2c(F)ccc(-c3c(Cl)c4c5c(nc(OC[C@@]67CCCN6C[C@H](F)C7)nc5c3F)N(C3CCNCC3)CCO4)c12 [Compound 760, 2-amino-4-(8-chloro-10-fluoro-2-(((2R,7aS)-2-fluorotetrahydro-1H-pyrrolizin-7a(5H)-yl)methoxy)-4-(piperidin-4-yl)-5,6-dihydro-4H-[1,4]oxazepino[5,6,7-de]quinazolin-9-yl)-7-fluorobenzo[b]thiophene-3-carbonitrile] | < 100 nM | < 100 nM | < 100 nM | < 100 nM |
| N#Cc1c(N)sc2c(F)ccc(-c3c(Cl)c4c5c(nc(OC[C@@]67CCCN6C[C@H](F)C7)nc5c3F)N(CC(F)F)C(C3CCN3)CO4)c12 (stereo partly drawn) [Compound 816, 2-amino-4-(5-(azetidin-2-yl)-8-chloro-4-(2,2-difluoroethyl)-10-fluoro-2-(((2R,7aS)-2-fluorotetrahydro-1H-pyrrolizin-7a(5H)-yl)methoxy)-5,6-dihydro-4H-[1,4]oxazepino[5,6,7-de]quinazolin-9-yl)-7-fluorobenzo[b]thiophene-3-carbonitrile] | < 100 nM | < 100 nM | < 100 nM | < 100 nM |
| Cn1nc(NC(=O)C2CN2)cc1CN1CCOc2c(Cl)c(-c3ccc(F)c4sc(N)c(C#N)c34)c(F)c3nc(OC[C@@]45CCCN4C[C@H](F)C5)nc1c23 (stereo partly drawn) [Compound 999, N-(5-((9-(2-amino-3-cyano-7-fluorobenzo[b]thiophen-4-yl)-8-chloro-10-fluoro-2-(((2R,7aS)-2-fluorotetrahydro-1H-pyrrolizin-7a(5H)-yl)methoxy)-5,6-dihydro-4H-[1,4]oxazepino[5,6,7-de]quinazolin-4-yl)methyl)-1-methyl-1H-pyrazol-3-yl)aziridine-2-carboxamide] | < 100 nM | < 100 nM | < 100 nM | < 100 nM |
| Nc1nc2c(-c3c(Cl)c4c5c(nc(OC[C@@]67CCCN6C[C@H](F)C7)nc5c3F)N(C3CCNCC3)CCO4)ccc(F)c2s1 [Compound 898, 4-(8-chloro-10-fluoro-2-(((2R,7aS)-2-fluorotetrahydro-1H-pyrrolizin-7a(5H)-yl)methoxy)-4-(piperidin-4-yl)-5,6-dihydro-4H-[1,4]oxazepino[5,6,7-de]quinazolin-9-yl)-7-fluorobenzo[d]thiazol-2-amine] | < 100 nM | < 100 nM | < 100 nM | < 100 nM |
| C[C@H](Oc1nc2c3c(c(Cl)c(-c4ccc(F)c5sc(N)c(C#N)c45)c(F)c3n1)OCCN2C1CC2(CNC2)C1)[C@@H]1CCCN1C [Compound 856, 2-amino-4-(8-chloro-10-fluoro-2-((S)-1-((S)-1-methylpyrrolidin-2-yl)ethoxy)-4-(2-azaspiro[3.3]heptan-6-yl)-5,6-dihydro-4H-[1,4]oxazepino[5,6,7-de]quinazolin-9-yl)-7-fluorobenzo[b]thiophene-3-carbonitrile] | < 100 nM | < 100 nM | < 100 nM | < 100 nM |
| N#Cc1c(N)sc2c(F)ccc(-c3c(Cl)c4c5c(nc(OC[C@@]67CCCN6C[C@H](F)C7)nc5c3F)N([C@H]3CCNC3)CCO4)c12 [Compound 858, 2-amino-4-(8-chloro-10-fluoro-2-(((2R,7aS)-2-fluorotetrahydro-1H-pyrrolizin-7a(5H)-yl)methoxy)-4-((S)-pyrrolidin-3-yl)-5,6-dihydro-4H-[1,4]oxazepino[5,6,7-de]quinazolin-9-yl)-7-fluorobenzo[b]thiophene-3-carbonitrile] | < 100 nM | < 100 nM | < 100 nM | < 100 nM |
| C#C[C@H]1COc2c(Cl)c(-c3ccc(F)c4sc(N)c(C#N)c34)c(F)c3nc(OC[C@@]45CCCN4C[C@H](F)C5)nc(c23)N1CCC(F)F [Compound 788, 2-amino-4-((5S)-8-chloro-4-(3,3-difluoropropyl)-5-ethynyl-10-fluoro-2-(((2R,7aS)-2-fluorotetrahydro-1H-pyrrolizin-7a(5H)-yl)methoxy)-5,6-dihydro-4H-[1,4]oxazepino[5,6,7-de]quinazolin-9-yl)-7-fluorobenzo[b]thiophene-3-carbonitrile] | < 100 nM | < 100 nM | < 100 nM | < 100 nM |

Now from value to molecule:

| IC50 [1] | IC50 [2] | IC50 [3] | IC50 [4] | Structure (SMILES) |
| --- | --- | --- | --- | --- |
| < 100 nM | < 100 nM | < 100 nM | < 100 nM | CNCCCN1c2nc(OC[C@@]34CCCN3C[C@H](F)C4)nc3c(F)c(-c4ccc(F)c5sc(N)c(C#N)c45)c(Cl)c(c23)OCC1CC#N (stereo partly drawn) [Compound 928, 2-amino-4-(8-chloro-5-(cyanomethyl)-10-fluoro-2-(((2R,7aS)-2-fluorotetrahydro-1H-pyrrolizin-7a(5H)-yl)methoxy)-4-(3-(methylamino)propyl)-5,6-dihydro-4H-[1,4]oxazepino[5,6,7-de]quinazolin-9-yl)-7-fluorobenzo[b]thiophene-3-carbonitrile] |
| < 100 nM | < 100 nM | < 100 nM | < 100 nM | C#C[C@H]1COc2c(Cl)c(-c3ccc(F)c4sc(N)c(C#N)c34)c(F)c3nc(OC[C@@]45CCCN4C[C@H](F)C5)nc(c23)N1CC(F)F [Compound 1075, 2-amino-4-((5S)-8-chloro-4-(2,2-difluoroethyl)-5-ethynyl-10-fluoro-2-(((2R,7aS)-2-fluorotetrahydro-1H-pyrrolizin-7a(5H)-yl)methoxy)-5,6-dihydro-4H-[1,4]oxazepino[5,6,7-de]quinazolin-9-yl)-7-fluorobenzo[b]thiophene-3-carbonitrile] |
| < 100 nM | < 100 nM | < 100 nM | < 100 nM | N#Cc1c(N)sc2c(F)ccc(-c3c(Cl)c4c5c(nc(OC[C@@]67CCCN6C[C@H](F)C7)nc5c3F)N(CC(F)F)[C@@H](C3CC3C#N)CO4)c12 (stereo partly drawn) [Compound 1078, 2-amino-4-((5S)-8-chloro-5-(2-cyanocyclopropyl)-4-(2,2-difluoroethyl)-10-fluoro-2-(((2R,7aS)-2-fluorotetrahydro-1H-pyrrolizin-7a(5H)-yl)methoxy)-5,6-dihydro-4H-[1,4]oxazepino[5,6,7-de]quinazolin-9-yl)-7-fluorobenzo[b]thiophene-3-carbonitrile] |
| < 100 nM | < 100 nM | < 100 nM | < 100 nM | N#Cc1c(N)sc2c(F)ccc(-c3c(Cl)c4c5c(nc(OC[C@@]67CCCN6C[C@H](F)C7)nc5c3F)N(CC(F)F)C(C3CC3(F)F)CO4)c12 (stereo partly drawn) [Compound 987, 2-amino-4-(8-chloro-5-(2,2-difluorocyclopropyl)-4-(2,2-difluoroethyl)-10-fluoro-2-(((2R,7aS)-2-fluorotetrahydro-1H-pyrrolizin-7a(5H)-yl)methoxy)-5,6-dihydro-4H-[1,4]oxazepino[5,6,7-de]quinazolin-9-yl)-7-fluorobenzo[b]thiophene-3-carbonitrile] |
| < 100 nM | < 100 nM | < 100 nM | < 100 nM | C#Cc1c(F)ccc2cc(O)cc(-c3nc4c5c(nc(OC[C@@]67CCCN6C[C@H](F)C7)nc5c3F)N(C3CCCN(C=O)C3)CCO4)c12 (stereo partly drawn) [Compound 1066, 3-(5-(8-ethynyl-7-fluoro-3-hydroxynaphthalen-1-yl)-4-fluoro-2-(((2R,7aS)-2-fluorotetrahydro-1H-pyrrolizin-7a(5H)-yl)methoxy)-8,9-dihydro-10H-7-oxa-1,3,6,10-tetraazacyclohepta[de]naphthalen-10-yl)piperidine-1-carbaldehyde] |
